# Assay results as given in patent US8193170B2, “2-methylene-19,26-dinor-(20R,22E,25R)-vitamin D analogs” (Wisconsin Alumni Research Foundation, priority 2008, dated 2012).
# Entries after “also recorded” stand apart in the source; their conditions may differ.
# Tests used:
# [1] = test system: 24-hydroxylase (24Ohase) gene promoter in ROS 17/2.8 (bone) cells; assay: In vitro transcription assay (24-hydroxylase gene promoter luciferase reporter); format: cell-based; details: for EC50: ROS 17/2.8 cells, 24-hydroxylase promoter-luciferase, FIG. 3, read-out: EC50, transcriptional activity in bone cells
# Procedure: Transcription activity was measured in ROS 17/2.8 (bone) cells that were stably transfected with a 24-hydroxylase (24Ohase) gene promoter upstream of a luciferase reporter gene (Arbour et al., 1998). Cells were given a range of doses. Sixteen hours after dosing the cells were harvested and luciferase activities were measured using a luminometer.
# RLU=relative luciferase units.
# [2] = Bone calcium mobilization (serum calcium) in vitamin D-deficient rats; format: in vivo, rat; details: rats on 0.02% Ca diet, FIG. 4
# Procedure: (§1) Male, weanling Sprague-Dawley rats were placed on Diet 11 (0.47% Ca) diet+AEK oil for one week followed by Diet 11 (0.02% Ca)+AEK oil for 3 weeks. The rats were then switched to a diet containing 0.47% Ca for one week followed by two weeks on a diet containing 0.02% Ca. Dose administration began during the last week on 0.02% calcium diet. Four consecutive ip doses were given approximately 24 hours apart. Twenty-four hours after the last dose, blood was collected from the severed neck and the concentration of serum calcium determined as a measure of bone calcium mobilization. The first 10 cm of the intestine was also collected for intestinal calcium transport analysis using the everted gut sac method.
# [3] = molecular target: T1, full-length recombinant rat vitamin D receptor (Rattus norvegicus, UniProt P13053); assay: Vitamin D receptor competitive binding with [3H]-1,25(OH)2D3
# T1 construct: Full-length recombinant rat receptor was expressed in E. coli; histidine tag (C); made in house; host or cells: E. coli BL21 (DE3) Codon Plus RIL
# T1 sequence (P13053 1-423): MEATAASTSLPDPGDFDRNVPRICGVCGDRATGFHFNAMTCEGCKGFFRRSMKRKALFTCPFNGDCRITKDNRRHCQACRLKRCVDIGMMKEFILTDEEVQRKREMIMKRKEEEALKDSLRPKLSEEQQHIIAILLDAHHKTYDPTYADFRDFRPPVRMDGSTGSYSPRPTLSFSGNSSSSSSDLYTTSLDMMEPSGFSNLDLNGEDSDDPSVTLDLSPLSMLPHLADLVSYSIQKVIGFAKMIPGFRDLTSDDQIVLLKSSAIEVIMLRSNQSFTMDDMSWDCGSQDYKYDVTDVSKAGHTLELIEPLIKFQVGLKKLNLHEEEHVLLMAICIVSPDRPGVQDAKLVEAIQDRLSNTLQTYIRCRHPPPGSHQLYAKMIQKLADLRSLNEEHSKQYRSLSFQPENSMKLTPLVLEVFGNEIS
# Procedure: Full-length recombinant rat receptor was expressed in E. coli BL21 (DE3) Codon Plus RIL cells and purified to homogeneity using two different column chromatography systems. The first system was a nickel affinity resin that utilizes the C-terminal histidine tag on this protein. The protein that was eluted from this resin was further purified using ion exchange chromatography (S-Sepharose Fast Flow). Aliquots of the purified protein were quick frozen in liquid nitrogen and stored at −80° C. until use. For use in binding assays, the protein was diluted in TEDK50 (50 mM Tris, 1.5 mM EDTA, pH7.4, 5 mM DTT, 150 mM KCl) with 0.1% Chaps detergent. The receptor protein and ligand concentration were optimized such that no more than 20% of the added radiolabeled ligand was bound to the receptor.
# Radiolabeled and unlabeled ligands were added to 100 mcl of the diluted protein at a final ethanol concentration of ≦10%, mixed and incubated overnight on ice to reach binding equilibrium. The following day, 100 mcl of hydroxylapatite slurry (50%) was added to each tube and mixed at 10-minute intervals for 30 minutes. The hydroxylapaptite was collected by centrifugation and then washed three times with Tris-EDTA buffer (50 mM Tris, 1.5 mM EDTA, pH 7.4) containing 0.5% Titron X-100. […] Total binding was determined from the tubes containing only radiolabeled ligand.
# [4] = Intestinal calcium transport, everted gut sac method, in vitamin D-deficient rats; format: in vivo, rat; details: FIG. 5
# Procedure: as §1
# [5] = test system: HL-60 cells; assay: HL-60 cell differentiation (nitro blue tetrazolium reduction); format: cell-based, human; details: for EC50: differentiation of HL-60 cells into monocytes, FIG. 2
# Procedure: The study drugs were dissolved in ethanol and the concentrations determined using UV spectrophotometry. Serial dilutions were prepared so that a range of drug concentrations could be tested without changing the final concentration of ethanol (≦0.2%) present in the cell cultures.
# Human promyelocytic leukemia (HL60) cells were grown in RPMI-1640 medium containing 10% fetal bovine serum. The cells were incubated at 37° C. in the presence of 5% CO2.
# HL60 cells were plated at 1.2×10^5 cells/ml. Eighteen hours after plating, cells in duplicate were treated with drug. Four days later, the cells were harvested and a nitro blue tetrazolium reduction assay was performed (Collins et al., 1979; J. Exp. Med. 149:969-974). The percentage of differentiated cells was determined by counting a total of 200 cells and recording the number that contained intracellular black-blue formazan deposits. Verification of differentiation to monocytic cells was determined by measuring phagocytic activity (data not shown).
# [6] = 780 pmol/day ip for 4 consecutive days
SMILES,EC50 [1] [nM],"Transcription activity of the 24-hydroxylase gene relative to 1,25(OH)2D3 (times more) ([1]; more potent than 1,25(OH)2D3, bone cells)","Bone calcium mobilization (serum calcium) ([2]; 2,340 pmol/day ip for 4 consecutive days)","Ki ([3]; full-length recombinant rat VDR, FIG. 1, read-out: Ki, competition with [3H]-1,25(OH)2D3 for binding to the vitamin D receptor) [nM]","VDR binding potency relative to 1,25(OH)2D3 (times less potent) ([3]; less potent than 1,25(OH)2D3)","Intestinal calcium transport activity [4, 6]","Intestinal calcium transport, dose dependence ([4]; range of doses)",EC50 ([5]; Homo sapiens) [nM],"HL-60 cell differentiation activity relative to 1,25(OH)2D3 (times more) ([5]; more active than 1,25(OH)2D3)","Bone calcium mobilization (serum calcium) [2, 6]",Serum calcium levels ([2]; all dosages tested),EC50 [5] [nM]
"C=C1[C@H](O)CC(=C/C=C2\CCC[C@]3(C)[C@@H]([C@H](C)/C=C/C[C@@H](C)O)CC[C@@H]23)C[C@H]1O [RR-22, 2-methylene-19,26-dinor-(20R,22E,25R)-1α,25-dihydroxyvitamin D3]",0.02,about 10 times,did not result in any mobilization of bone calcium; also recorded: no bone calcium mobilization activity,0.1,about 10 times,"almost the same activity as 1,25(OH)2D3",promotes intestinal calcium transport in a dose dependent manner,0.2,about 10 times,,,
"C=C1/C(=C\C=C2/CCC[C@]3(C)[C@@H]([C@H](C)CCCC(C)(C)O)CC[C@@H]23)C[C@@H](O)C[C@@H]1O [1,25(OH)2D3, 1α,25-dihydroxyvitamin D3, reference compound]",0.2,,,,,,,,,significant activity,increased serum calcium levels at all dosages,2
